Patent publication US12570641B2, “Solid forms of a CDK4 inhibitor” (Pfizer Inc., priority 2020, dated 2026)
Each block holds one compound with its values, some of them ahead of it.

Columns and labels:
Assay type in all cases: physicochemical
[1] = Competitive slurry experiments in 2-propanol/1% water; details: 2-propanol/1% water, room temperature, 15 hours, PXRD
Protocol: Competitive slurry experiments were performed between Form 1 and Form 2 (Entry 1), and between Form 6 and Form 2 (Entry 2), in 2-propanol/1% water. Entry 1: […] The solids were collected with vacuum filtration and analyzed with PXRD. PXRD data was consistent with PF-07220060 monohydrate (Form 2). Entry 2: […] The solids were collected with vacuum filtration and analyzed with PXRD. PXRD data was consistent with PF-07220060 monohydrate (Form 2).

[2] = Thermal stability by Differential Scanning Calorimetry (DSC)
Protocol: Modulated Differential scanning calorimetry (DSC) measurements were performed with Discovery DSC (TA instruments) equipped with a refrigerated cooling accessory. All the experiments were performed in standard/Tzero aluminum pans. The cell constant was determined using indium and temperature calibration was performed using indium and tin as standards. All the measurements were done under continuous dry nitrogen purge (50 mL/min). Approximately 1-5 mg of solid sample was weighed into a Tzero aluminum pan, sealed non-hermetically and heated from −40° C. to 220° C. at 10° C./min heating rate. The experimental data were analyzed using commercially available software (TA Universal Analysis 2000/Trios software, TA Instruments).
(§1) Thermal stability data were obtained through thermogravimetric analysis (TGA) according to General Method 4, and Differential Scanning Calorimetry (DSC) scan according to General Method 5A.

[3] = Thermal stability by thermogravimetric analysis (TGA)
Protocol: Thermogravimetric analysis was conducted using a Discovery TGA (TA instruments) thermogravimetric analyzer. Samples of approximately 10 mg were weighed into aluminum pans and heated from ambient ([…]) to 250° C. at 10° C./minute heating rate under nitrogen purge (10 mL/min for both sample chamber and balance).
as §1

[4] = Slurry conversion in 10% MeCN/water, form by PXRD; details: room temperature
Protocol: Crystalline PF-07220060 hydrate (Form 1) (25 mg) prepared as described in Example 1, Vial A was suspended in 10% MeCN/water (0.5 mL) and slurried at room temperature for […].

[5] = Moisture sorption (hygroscopicity), water sorption and desorption; details: for form change at the completion of the moisture sorption run by PXRD: 25° C.; for Weight Gain (%) at 25° C., 60% RH: comparative summary of Forms 1, 2, 6 and 8
Protocol: Water sorption and desorption studies were conducted on an automated vapor sorption analyzer (TA instruments Q5000 SA). The microbalance was calibrated using a 100 mg standard weight. The relative humidity (RH) sensor was calibrated at 5.0, 11.3, 32.8, 52.8, 75.3, and 84.3% RH (25° C.) using saturated salt solutions. Approximately 10-20 mg of the powder sample was placed in the quartz sample holder and dried at 3% RH at 60° C. The attainment of equilibrium was assumed when the weight change of the sample was <0.001 wt % in 5 min or by a maximum equilibration time of 300 minutes. […] Again, the attainment of equilibrium was assumed when the weight change of the sample was <0.001 wt % in 5 min or by a maximum equilibration time of 300 minutes. The weight gain at 60% RH is based on the weight after the initial drying step.
Water sorption and desorption studies of PF-07220060 monohydrate (Form 2), prepared as described in Example 2, were conducted according to General Method 6.
Water sorption and desorption studies of PF-07220060 hydrate (Form 1), prepared as described in Example 5B, were conducted according to General Method 6.
Comparative hygroscopicity experiments were performed using moisture sorption analysis according to General Method 6. PF-07220060 Forms 1, 2, 6, and 8 were evaluated using moisture sorption at 25° C., 60% RH. A form change at the completion of the run was not detected for any of the forms by PXRD.

- Out-going form [1]: converted to Form 2
- Thermal stability via DSC (° C.) ([2]; listed as Form 1 (hydrate)): 0 °C
- Thermal stability via TGA (° C.) ([3]; listed as Form 1 (hydrate)): 20 °C
- form change at the completion of the moisture sorption run by PXRD ([5]; 60% RH): not detected
- Weight gain (%) ([5]; 25 °C, RH 0%, listed as PF-07220060 hydrate (Form 1)): 0.05%
- Weight gain (%) ([5]; 25 °C, RH 10%, desorption, listed as PF-07220060 hydrate (Form 1)): 1.26%
- Weight gain (%) ([5]; 25 °C, RH 10%, sorption, listed as PF-07220060 hydrate (Form 1)): 1.23%
- Weight gain (%) ([5]; 25 °C, RH 20%, desorption, listed as PF-07220060 hydrate (Form 1)): 2.38%
- Weight gain (%) ([5]; 25 °C, RH 20%, sorption, listed as PF-07220060 hydrate (Form 1)): 2.34%
- Weight gain (%) ([5]; 25 °C, RH 30%, desorption, listed as PF-07220060 hydrate (Form 1)): 2.87%
- Weight gain (%) ([5]; 25 °C, RH 30%, sorption, listed as PF-07220060 hydrate (Form 1)): 2.84%
- Weight gain (%) ([5]; 25 °C, RH 40%, desorption, listed as PF-07220060 hydrate (Form 1)): 3.13%
- Weight gain (%) ([5]; 25 °C, RH 40%, sorption, listed as PF-07220060 hydrate (Form 1)): 3.10%
- Weight gain (%) ([5]; 25 °C, RH 50%, desorption, listed as PF-07220060 hydrate (Form 1)): 3.30%
- Weight gain (%) ([5]; 25 °C, RH 50%, sorption, listed as PF-07220060 hydrate (Form 1)): 3.26%
- Weight gain (%) ([5]; 25 °C, RH 60%, desorption, listed as PF-07220060 hydrate (Form 1)): 3.41%
- Weight gain (%) ([5]; 25 °C, RH 60%, sorption, listed as PF-07220060 hydrate (Form 1)): 3.37%
- Weight gain (%) ([5]; 25 °C, RH 70%, desorption, listed as PF-07220060 hydrate (Form 1)): 3.49%
- Weight gain (%) ([5]; 25 °C, RH 70%, sorption, listed as PF-07220060 hydrate (Form 1)): 3.46%
- Weight gain (%) ([5]; 25 °C, RH 80%, desorption, listed as PF-07220060 hydrate (Form 1)): 3.55%
- Weight gain (%) ([5]; 25 °C, RH 80%, sorption, listed as PF-07220060 hydrate (Form 1)): 3.53%
- Weight gain (%) ([5]; 25 °C, RH 90%, listed as PF-07220060 hydrate (Form 1)): 3.61%
- Weight gain (%) ([5]; 60 °C, RH 0% (initial drying step)): 0.00%
- Weight Gain (%) at 25° C., 60% RH [5]: ~3%
Structure (SMILES): CC(C)n1c(C(C)(C)O)nc2c(F)cc(-c3nc(N[C@@H]4CCOC[C@H]4O)ncc3Cl)cc21 [Form 1, 1,5-anhydro-3-({5-chloro-4-[4-fluoro-2-(2-hydroxypropan-2-yl)-1-(propan-2-yl)-1H-benzimidazol-6-yl]pyrimidin-2-yl}amino)-2,3-dideoxy-D-threo-pentitol]
- form after slurry by PXRD [4]: converted to PF-07220060 monohydrate (Form 2)

- Out-going form [1]: converted to Form 2
- thermal stability relative to Form 1 and Form 8 ([2]; TGA and DSC): improved thermal stability
- Thermal stability via DSC (° C.) ([2]; listed as Form 6 (anhydrous)): 195 °C
- Thermal stability via TGA (° C.) ([3]; listed as Form 6 (anhydrous)): 195 °C
- form change at the completion of the moisture sorption run by PXRD ([5]; 60% RH): not detected
- Weight Gain (%) at 25° C., 60% RH [5]: <1%
- hygroscopicity relative to Form 8 and Form 1 ([5]; moisture sorption at 25° C., 60% RH): reduced hygroscopicity
Structure (SMILES): CC(C)n1c(C(C)(C)O)nc2c(F)cc(-c3nc(N[C@@H]4CCOC[C@H]4O)ncc3Cl)cc21 [Form 6, 1,5-anhydro-3-({5-chloro-4-[4-fluoro-2-(2-hydroxypropan-2-yl)-1-(propan-2-yl)-1H-benzimidazol-6-yl]pyrimidin-2-yl}amino)-2,3-dideoxy-D-threo-pentitol]

- Thermal stability via DSC (° C.) ([2]; listed as Form 8 (amorphous)): −10 °C
- Thermal stability via TGA (° C.) ([3]; listed as Form 8 (amorphous)): 20 °C
- form change at the completion of the moisture sorption run by PXRD ([5]; 60% RH): not detected
- Weight Gain (%) at 25° C., 60% RH [5]: ~2%
Structure (SMILES): CC(C)n1c(C(C)(C)O)nc2c(F)cc(-c3nc(N[C@@H]4CCOC[C@H]4O)ncc3Cl)cc21 [Form 8, 1,5-anhydro-3-({5-chloro-4-[4-fluoro-2-(2-hydroxypropan-2-yl)-1-(propan-2-yl)-1H-benzimidazol-6-yl]pyrimidin-2-yl}amino)-2,3-dideoxy-D-threo-pentitol]
